The numbers were not newly measured in PubChem BioAssay AID1259409 (Chemical Carcinogenesis Research Information System (CCRIS), 2018), which cites them from elsewhere.

For the data set, the system named is rodent chemically induced tumor inhibition, incidence and multiplicity. The data set is described as follows: CCRIS tumor inhibitor studies.

`C=CC/C(=N/OS(=O)(=O)O)S[C@@H]1O[C@H](CO)[C@@H](O)[C@H](O)[C@H]1O`: the “tumour outcome (control, treated, inhibition, significance)” value is reported as 12/17 (71%), 0/15 (0%), 100%, p 0.0003 (Carcinogen: 4-NITROQUINOLINE-1-OXIDE, 56-57-5, Dose [Inhibitor]: 0, 1200 PPM IN DIET BEGINNING 1 WK POST CARCINOGEN TREATMENT AND CONTINUING FOR 23 WK (STUDY DURATION: 37 WK), Route [Inhibitor]: ORAL, Species: RAT, Strain/Sex: ACI/N/MALE, Target Tissue: Type of Lesion: TONGUE: CARCINOMA, Dose [Carcinogen]: 10 PPM IN DRINKING WATER FOR 12 WK, Promoter: NONE USED); 5/17 (29%), 2/15 (13%), 55%, not calculated (Carcinogen: 4-NITROQUINOLINE-1-OXIDE, 56-57-5, Dose [Inhibitor]: 0, 1200 PPM IN DIET BEGINNING 1 WK POST CARCINOGEN TREATMENT AND CONTINUING FOR 23 WK (STUDY DURATION: 37 WK), Route [Inhibitor]: ORAL, Species: RAT, Strain/Sex: ACI/N/MALE, Target Tissue: Type of Lesion: TONGUE: PAPILLOMA, Dose [Carcinogen]: 10 PPM IN DRINKING WATER FOR 12 WK, Promoter: NONE USED); 12/17 (71%), 0/15 (0%), 100%, p 0.00003 (Carcinogen: 4-NITROQUINOLINE-1-OXIDE, 56-57-5, Dose [Inhibitor]: 0, 1200 PPM IN DIET BEGINNING 1 WK PRIOR TO CARCINOGEN TREATMENT AND CONTINUING FOR 1 WK POST CARCINOGEN TREATMENT (STUD, Route [Inhibitor]: ORAL, Species: RAT, Strain/Sex: ACI/N/MALE, Target Tissue: Type of Lesion: TONGUE: CARCINOMA, Dose [Carcinogen]: 10 PPM IN DRINKING WATER FOR 12 WK, Promoter: NONE USED); 5/17 (29%), 1/15 (7%), 76%, not calculated (Carcinogen: 4-NITROQUINOLINE-1-OXIDE, 56-57-5, Dose [Inhibitor]: 0, 1200 PPM IN DIET BEGINNING 1 WK PRIOR TO CARCINOGEN TREATMENT AND CONTINUING FOR 1 WK POST CARCINOGEN TREATMENT (STUD, Route [Inhibitor]: ORAL, Species: RAT, Strain/Sex: ACI/N/MALE, Target Tissue: Type of Lesion: TONGUE: PAPILLOMA, Dose [Carcinogen]: 10 PPM IN DRINKING WATER FOR 12 WK, Promoter: NONE USED); 10/10 (100%), 2/12 (17%), 83%, p<0.0002 (Carcinogen: DIETHYLNITROSAMINE, 55-18-5, Dose [Inhibitor]: 0, 1200 PPM IN DIET BEGINNING 1 WK PRIOR TO FIRST CARCINOGEN DOSE AND CONTINUING TO 1 WK POST LAST CARCINOGEN DOSE (STUD, Route [Inhibitor]: ORAL, Species: RAT, Strain/Sex: ACI/N/MALE, Target Tissue: Type of Lesion: LIVER: ADENOMA, Dose [Carcinogen]: 40 PPM IN DRINKING WATER FOR 5 WK, Promoter: NONE USED); 10/10 (100%), 4/12 (33%), 67%, p<0.002 (Carcinogen: DIETHYLNITROSAMINE, 55-18-5, Dose [Inhibitor]: 0, 1200 PPM IN DIET BEGINNING 1 WK PRIOR TO FIRST CARCINOGEN DOSE AND CONTINUING TO 1 WK POST LAST CARCINOGEN DOSE (STUD, Route [Inhibitor]: ORAL, Species: RAT, Strain/Sex: ACI/N/MALE, Target Tissue: Type of Lesion: LIVER: CARCINOMA, Dose [Carcinogen]: 40 PPM IN DRINKING WATER FOR 5 WK, Promoter: NONE USED).

`O=C1CC(C(=O)O)C(C(=O)O)O1` (stereo not given): the “tumour outcome (control, treated, inhibition, significance)” value (Carcinogen: BENZO[A]PYRENE, 50-32-8, Dose [Inhibitor]: 0.034 MMOL/G IN DIET FOR 5 WK BEGINNING 1 WK PRIOR TO FIRST CARCINOGEN DOSE AND CONTINUING FOR 3 D POST LAST CARCINOGEN, Route [Inhibitor]: ORAL, Species: MOUSE, Strain/Sex: ICR/HA/FEMALE, Target Tissue: Type of Lesion: FORESTOMACH: TUMOR, Dose [Carcinogen]: 1 MG IN 0.2 ML CORN OIL 2/WK FOR 4 WK STARTING, Promoter: NONE USED) is recorded as 100%, 100%, 0%, not significant.

`O=C(O)/C=C/c1ccc(O)c(O)c1`: the “tumour outcome (control, treated, inhibition, significance)” value runs as follows: (Carcinogen: 4-NITROQUINOLINE-1-OXIDE, 56-57-5, Dose [Inhibitor]: 0, 500 PPM IN DIET FOR 7 WK BEGINNING 1 WK PRIOR TO START OF CARCINOGEN TREATMENT (STUDY DURATION: 32 WK), Route [Inhibitor]: ORAL, Species: RAT, Strain/Sex: F344/MALE, Target Tissue: Type of Lesion: TONGUE: PAPILLOMA, Dose [Carcinogen]: 20 PPM IN DRINKING WATER FOR 5 WK, Promoter: NONE USED) 1/15 (7%), 0/15 (0%), 100%, not significant; (Carcinogen: 7,12-DIMETHYLBENZ[A]ANTHRACENE, 57-97-6, Dose [Inhibitor]: 0.5% IN POWDERED DIET BEGINNING 1 WK POST CARCINOGEN DOSE FOR 51 WK (STUDY DURATION: 52 WK), Route [Inhibitor]: ORAL, Species: RAT, Strain/Sex: SPRAGUE-DAWLEY/FEMALE, Target Tissue: Type of Lesion: EAR DUCT: BENIGN TUMOR, Dose [Carcinogen]: 2.5 MG/100 G BW IN 0.5 ML SESAME OIL ONCE, Promoter: NONE USED) 7/19 (37%), 10/19 (53%), -43%, not calculated; (Carcinogen: 7,12-DIMETHYLBENZ[A]ANTHRACENE, 57-97-6, Dose [Inhibitor]: 0.5% IN POWDERED DIET BEGINNING 1 WK POST CARCINOGEN DOSE FOR 51 WK (STUDY DURATION: 52 WK), Route [Inhibitor]: ORAL, Species: RAT, Strain/Sex: SPRAGUE-DAWLEY/FEMALE, Target Tissue: Type of Lesion: MAMMARY GLAND: CARCINOMA, Dose [Carcinogen]: 2.5 MG/100 G BW IN 0.5 ML SESAME OIL ONCE, Promoter: NONE USED) 6/19 (32%), 9/19 (47%), -50%, not calculated; (Carcinogen: 7,12-DIMETHYLBENZ[A]ANTHRACENE, 57-97-6, Dose [Inhibitor]: 0.5% IN POWDERED DIET BEGINNING 1 WK POST CARCINOGEN DOSE FOR 51 WK (STUDY DURATION: 52 WK), Route [Inhibitor]: ORAL, Species: RAT, Strain/Sex: SPRAGUE-DAWLEY/FEMALE, Target Tissue: Type of Lesion: MAMMARY GLAND: FIBROADENOMA, Dose [Carcinogen]: 2.5 MG/100 G BW IN 0.5 ML SESAME OIL ONCE, Promoter: NONE USED) 15/19 (79%), 11/19 (58%), 27%, not calculated; (Carcinogen: 7,12-DIMETHYLBENZ[A]ANTHRACENE, 57-97-6, Dose [Inhibitor]: 10 UMOL IN 200 µL ACETONE/DMSO (90:10) 2/WK FOR 19 WK BEGINNING 1 WK POST CARCINOGEN DOSE (STUDY DURATION: 20 WK), Route [Inhibitor]: DERMAL, Species: MOUSE, Strain/Sex: CD-1/FEMALE, Target Tissue: Type of Lesion: SKIN: PAPILLOMA, Dose [Carcinogen]: 200 NMOL IN 200 µL ACETONE ONCE, Promoter: 12-O-TETRADECANOYLPHORBOL-13-ACETATE, 16561-29-8) 68%, 47%, 31%, not calculated; (Carcinogen: 7,12-DIMETHYLBENZ[A]ANTHRACENE, 57-97-6, Dose [Inhibitor]: 20 UMOL IN 200 µL ACETONE/DMSO (90:10) 2/WK FOR 19 WK BEGINNING 1 WK POST CARCINOGEN DOSE (STUDY DURATION: 20 WK), Route [Inhibitor]: DERMAL, Species: MOUSE, Strain/Sex: CD-1/FEMALE, Target Tissue: Type of Lesion: SKIN: PAPILLOMA, Dose [Carcinogen]: 200 NMOL IN 200 µL ACETONE ONCE, Promoter: 12-O-TETRADECANOYLPHORBOL-13-ACETATE, 16561-29-8) 68%, 38%, 44%, not calculated. Further, the “tumour outcome (control, treated, inhibition, significance)” value (Carcinogen: BENZO[A]PYRENE, 50-32-8, Dose [Inhibitor]: 0.06 MMOL/G OF DIET STARTING 8 D BEFORE AND CONTINUING THROUGH 3 D AFTER LAST CARCINOGEN TREATMENT (STUDY DURATION: 148, Route [Inhibitor]: ORAL, Species: MOUSE, Strain/Sex: ICR/FEMALE, Target Tissue: Type of Lesion: FORESTOMACH: NEOPLASM, Dose [Carcinogen]: 1 MG IN 0.2 ML CORN OIL 2/WK FOR 4 WK, Promoter: NONE USED) was 100%, 94%, 6%, not significant and the “tumour outcome (control, treated, inhibition, significance)” value (Carcinogen: N-NITROQUINOLINE-1-OXIDE, 56-57-5, Dose [Inhibitor]: 0, 500 PPM IN DIET FOR 7 WK BEGINNING 1 WK PRIOR TO START OF CARCINOGEN TREATMENT (STUDY DURATION: 32 WK), Route [Inhibitor]: ORAL, Species: RAT, Strain/Sex: F344\MALE, Target Tissue: Type of Lesion: TONGUE: CARCINOMA, Dose [Carcinogen]: 20 PPM IN DRINKING WATER FOR 5 WK, Promoter: NONE USED) is reported as 9/15 (60%), 0/15 (0%), 100%, p=0.00035.
